Test results from patent US5079358A, “6H-pyrazolo-[4,5,1-d,e]acridin-6-one derivatives having anit-tumor activity” (Kyowa Hakko Kogyo Co., Ltd., priority 1988, dated 1992).
Values after ≈ are worked out from the molar mass of the structure shown.

Tests used:
P388 ascites tumor = test: Effect on P388 ascites tumor (increased life span); format: in vivo; conditions: P388, ip, intraperitoneal, 24 hours after implantation, male CDF1 mouse
Experimental: Effect on P388 ascites tumor:
P388 tumor cells (10^6 cells) were implanted intraperitoneally into a DBA/2 mouse and the cells were collected from the ascitic fluid of the animal 7 days after the implantation. The cells were ashed once with sterilized physiological saline solution and then suspended in a sterilized physiological saline solution to prepare a cell suspension containing 5×10^6 cells/ml. The suspension (0.2 ml) was intraperitoneally inoculated into a male CDF1 mouse aged 6 weeks. A test compound was dissolved in physiological saline solution and intraperitoneally administered to the animal 24 hours after implantation of the tumor cells. One test group comprised 5 mice. The mean survival time (days) of a test group which received a test compound at a specified concentration was calculated as T from survival days of animals in the group. ON the other hand, the mean survival time (days) of the non-administered group (C) was obtained in the same manner, and the increased life span (ILS %) was calculated as [(T-C)/C]×100 (%).

[1] = Acute toxicity (LD50), single intravenous administration to male ddy mice; conditions: mouse, in vivo, 14 days observation, Probit's method
Experimental: A test compound was administered intravenously once to male ddy mice. One test group comprised ten mice. […] LD50 was calculated from the death rate of each group in accordance with Probit's method.

[2] = tested on: human cancer cells (HeLaS3); test: Inhibitory effect on growth of human cancer cells (HeLaS3); format: cell-based; conditions: Homo sapiens, HeLa S3, 72 hours at 37° C., Neutral Red staining, 550 nm, read-out: IC50
Experimental: Inhibitory effect on growth of human cancer cells (HeLaS3):
HeLaS, cells were suspended in a medium comprising MEM medium (Nissui Pharmaceutical Co., Ltd.) and 2 mM glutamine (hereinafter referred to as Medium A) to a concentration of 3×10^4 cells/ml. The cell suspension thus prepared was put into wells of a 96-well microtiter plate in an amount of 0.1 ml/well. The cells on the plate were incubated in a CO2 -incubater at 37° C. for 20 hours, and 0.05 ml of a sample containing a test compound and appropriately diluted with Medium A was added to each well. The cells were further incubated in the CO2 -incubater at 37° C. for 72 hours. After the culture supernatant was removed, a medium comprising Medium A and 0.02% Neutral Red was added to the residue in an amount of 0.1 ml/well, followed by incubation at 37° C. for one hour in the CO2 -incubater, whereby the cells were stained. The culture supernatant was removed and the residue was washed once with physiological saline solution. The pigment was extracted with 0.001 N-HCl/30%-ethanol, and the absorbance was determined at 550 nm with a microplate reader. The absorbance determined for intact cells was compared with that for the cells treated with the test compound of a known concentration, and the concentration of the test compound for inhibiting 50% growth of the cells (IC50) was calculated.

IC50 [2] | Compound | LD50 at 336 h [1] | ILS at 25 mg/kg (P388 ascites tumor) | other results
– | NCCNCc1nn2c3cccc(O)c3c(=O)c3c(NCCN)ccc1c32 [Compound 28, 5-(2-Aminoethyl)amino-2-(2-aminoethyl)aminomethyl-7-hydroxy-6H-pyrazolo[4,5,1-d,e]acridin-6-one] | 15.7 mg/kg | – | ILS at 12.5 mg/kg (P388 ascites tumor; dose 12.5 mg/kg): > 154%
3 ng/mL (≈ 7.31 nM) | NCCNCc1nn2c3cccc(O)c3c(=O)c3c(NCCNCCO)ccc1c32 [Compound 46, 2-(2-Aminoethyl)aminomethyl-7-hydroxy-5-[2-(2-hydroxyethylamino)ethyl]amino-6H-pyrazolo[4,5,1-d,e]acridin-6-one] | – | > 156% | –
2.6 ng/mL (≈ 6.35 nM) | NCCNCCNc1ccc2c(CNCCN)nn3c4cccc(O)c4c(=O)c1c23 [Compound 48, 5-[2-(2-Aminoethylamino)ethyl]amino-2-(2-aminoethyl)aminomethyl-7-hydroxy-6H-pyrazolo[4,5,1-d,e]acridin-6-one] | – | – | ILS at 50 mg/kg (P388 ascites tumor; dose 50 mg/kg): > 200%
– | CN(C)CCNc1ccc2c(CN(CCO)CCO)nn3c4cccc(O)c4c(=O)c1c23 [Compound 51, 2-Bis(2-hydroxyethyl)aminomethyl-5-(2-dimethylaminoethyl)amino-7-hydroxy-6H-pyrazolo[4,5,1-d,e]acridin-6-one] | 15.7 mg/kg | > 186% | –
– | NCCNc1ccc2c(CN(CCO)CCO)nn3c4cccc(O)c4c(=O)c1c23 [Compound 53, 5-(2-Aminoethyl)amino-2-bis(2-hydroxyethyl)aminomethyl-7-hydroxy-6H-pyrazolo[4,5,1-d,e]acridin-6-one] | 25 mg/kg | > 100% | –
260 ng/mL (≈ 513 nM) | O=c1c2c(O)cccc2n2nc(CNCCN3CCOCC3)c3ccc(NCCN4CCOCC4)c1c32 [Compound 56, 7-Hydroxy-5-(2-morpholinoethyl)amino-2-(2-morpholinoethyl)aminomethyl-6H-pyrazolo[4,5,1-d,e]acridin-6-one] | – | – | ILS at 100 mg/kg (P388 ascites tumor; dose 100 mg/kg): 121%
